{"source": "patent US20150320773A1", "about": "“TREATMENT OF INFLAMMATION” (Vascular Biogenics Ltd., priority 2011, published 2015)", "key": {"[1]": {"biological_target": "TLR7 (Mus musculus, UniProt P58681)", "sequence (P58681 27-1050)": "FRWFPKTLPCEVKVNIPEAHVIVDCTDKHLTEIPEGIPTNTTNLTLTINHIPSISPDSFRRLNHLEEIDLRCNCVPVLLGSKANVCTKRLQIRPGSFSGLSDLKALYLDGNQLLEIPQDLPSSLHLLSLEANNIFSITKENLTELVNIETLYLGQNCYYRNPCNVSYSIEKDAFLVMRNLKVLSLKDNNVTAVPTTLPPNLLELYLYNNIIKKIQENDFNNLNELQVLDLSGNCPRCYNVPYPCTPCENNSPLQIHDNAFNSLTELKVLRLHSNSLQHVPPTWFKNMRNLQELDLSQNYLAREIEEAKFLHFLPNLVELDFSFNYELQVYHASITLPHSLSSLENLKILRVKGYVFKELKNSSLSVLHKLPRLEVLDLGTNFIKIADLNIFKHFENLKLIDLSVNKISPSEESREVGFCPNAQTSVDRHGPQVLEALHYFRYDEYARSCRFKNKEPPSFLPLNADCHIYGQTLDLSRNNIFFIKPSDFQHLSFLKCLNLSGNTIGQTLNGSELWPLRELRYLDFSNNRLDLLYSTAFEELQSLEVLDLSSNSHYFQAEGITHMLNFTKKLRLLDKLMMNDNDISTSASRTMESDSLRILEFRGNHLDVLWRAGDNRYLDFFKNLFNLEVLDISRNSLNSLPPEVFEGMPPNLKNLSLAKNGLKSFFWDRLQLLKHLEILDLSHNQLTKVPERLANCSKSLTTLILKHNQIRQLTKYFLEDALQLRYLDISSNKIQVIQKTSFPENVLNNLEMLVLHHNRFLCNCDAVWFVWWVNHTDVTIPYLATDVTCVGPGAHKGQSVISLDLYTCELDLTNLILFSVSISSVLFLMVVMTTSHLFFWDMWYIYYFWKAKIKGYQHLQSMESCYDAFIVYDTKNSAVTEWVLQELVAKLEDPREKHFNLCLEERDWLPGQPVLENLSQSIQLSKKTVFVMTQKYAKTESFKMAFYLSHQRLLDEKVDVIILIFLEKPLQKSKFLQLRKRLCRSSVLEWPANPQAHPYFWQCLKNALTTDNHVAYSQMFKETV", "conditions": "mouse BMDCs; R848; 1.7, 8.5 or 17 μM"}, "[2]": {"biological_target": "TLR2 (Homo sapiens, UniProt O60603)", "sequence (O60603 21-784)": "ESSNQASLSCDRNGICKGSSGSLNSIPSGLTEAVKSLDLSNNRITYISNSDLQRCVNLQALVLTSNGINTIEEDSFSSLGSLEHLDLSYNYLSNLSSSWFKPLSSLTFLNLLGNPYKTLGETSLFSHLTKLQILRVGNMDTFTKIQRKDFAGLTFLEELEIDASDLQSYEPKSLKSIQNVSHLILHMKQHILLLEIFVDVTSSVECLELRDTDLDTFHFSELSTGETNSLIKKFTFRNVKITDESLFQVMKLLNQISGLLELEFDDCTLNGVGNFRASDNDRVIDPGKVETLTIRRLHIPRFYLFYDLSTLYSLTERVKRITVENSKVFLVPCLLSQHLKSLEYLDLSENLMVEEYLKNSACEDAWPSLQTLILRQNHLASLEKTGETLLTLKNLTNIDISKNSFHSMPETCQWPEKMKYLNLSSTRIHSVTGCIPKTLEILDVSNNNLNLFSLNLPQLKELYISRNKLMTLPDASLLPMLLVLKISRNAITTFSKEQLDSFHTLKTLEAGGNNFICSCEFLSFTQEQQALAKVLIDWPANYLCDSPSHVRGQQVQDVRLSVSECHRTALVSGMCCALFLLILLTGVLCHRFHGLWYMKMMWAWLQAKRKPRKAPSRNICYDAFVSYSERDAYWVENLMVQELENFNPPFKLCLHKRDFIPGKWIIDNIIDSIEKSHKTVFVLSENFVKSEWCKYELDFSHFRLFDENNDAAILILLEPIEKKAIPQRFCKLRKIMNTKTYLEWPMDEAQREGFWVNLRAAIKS", "conditions": "1 μM SAA, 5 μg/ml VB-201"}, "[3]": {"tested_on": "human monocytes", "test": "ROS formation in human monocytes (DCF, FACS)", "format": "cell-based", "conditions": "overnight; VB-201 10 μg/ml, PGPC 10 μg/ml, OxPAPC 100 μg/ml; relative to PBS", "description": "Detection of ROS was performed through FACS quantification of the oxidation product dichlorodihydrofluorescein (DCF). Data are mean±SD from 3-4 experiments performed in duplicates. FIG. 23B is a histogram from a representative experiment showing DCF levels in treated cells."}, "[4]": {"tested_on": "monocytes", "test": "Phagocytosis assay (whole blood), monocytes", "format": "cell-based, human", "set-up": "dose or concentration left out as unconfirmed", "conditions": "VB-201 doses of 5 or 10", "description": "(§1) Phagocytosis assays were conducted using pHrodo™ Phagocytosis Particle Labeling Kit (Invitrogen) according to the manufacturer protocol. […] Then, pHrodo dye-labeled E. coli bacteria were mixed with the treated blood samples, in 20:1 ratio of pHrodo™ particles to phagocytosing cells and incubated for additional 15 minutes. Each sample was analyzed both at 4° C. (no phagocytosis, negative control) and 37° C. Following incubation, red blood cells were removed by lysis and the samples were washed 3 times with wash buffer. For gating on specific subpopulations, cells were labeled with anti-CD14-FITC (monocytes and granulocytes marker, BD Biosciences) and anti-CD66b-PerCP/Cy5.5 (granulocytes marker, BioLegend) antibodies. pHrodo fluorescence intensity was analyzed by FACS.\n(§2) To this end, a phagocytosis assay was performed on whole blood from healthy donors, and the capacity of leukocyte subsets to phagocytose PE-labeled E. Coli particles was tested in presence or absence of VB-201. As a negative control, we used blood without bacterial particles, while a positive control included blood and labeled-bacterial particles incubated at 37° C. Cells were then stained with CD14 and CD66b antibodies to differentiate between monocytes and granulocytes and were analyzed by FACS."}, "[5]": {"tested_on": "granulocytes", "test": "Phagocytosis assay (whole blood), granulocytes", "format": "cell-based, human", "conditions": "VB-201 doses of 5 or 10 µg/ml", "description": "as §1, §2"}, "[6]": {"tested_on": "MCF-7 human breast cancer cells", "test": "Wound-healing 'scratch' assay", "format": "cell-based", "conditions": "data not shown"}, "[7]": {"tested_on": "G-coupled protein receprors (GPRC)", "test": "Selectivity: effect on activity of additional proteins"}, "[8]": {"biological_target": "T1, TLR4 (Mus musculus, UniProt Q9QUK6)", "T1 sequence (Q9QUK6 26-835)": "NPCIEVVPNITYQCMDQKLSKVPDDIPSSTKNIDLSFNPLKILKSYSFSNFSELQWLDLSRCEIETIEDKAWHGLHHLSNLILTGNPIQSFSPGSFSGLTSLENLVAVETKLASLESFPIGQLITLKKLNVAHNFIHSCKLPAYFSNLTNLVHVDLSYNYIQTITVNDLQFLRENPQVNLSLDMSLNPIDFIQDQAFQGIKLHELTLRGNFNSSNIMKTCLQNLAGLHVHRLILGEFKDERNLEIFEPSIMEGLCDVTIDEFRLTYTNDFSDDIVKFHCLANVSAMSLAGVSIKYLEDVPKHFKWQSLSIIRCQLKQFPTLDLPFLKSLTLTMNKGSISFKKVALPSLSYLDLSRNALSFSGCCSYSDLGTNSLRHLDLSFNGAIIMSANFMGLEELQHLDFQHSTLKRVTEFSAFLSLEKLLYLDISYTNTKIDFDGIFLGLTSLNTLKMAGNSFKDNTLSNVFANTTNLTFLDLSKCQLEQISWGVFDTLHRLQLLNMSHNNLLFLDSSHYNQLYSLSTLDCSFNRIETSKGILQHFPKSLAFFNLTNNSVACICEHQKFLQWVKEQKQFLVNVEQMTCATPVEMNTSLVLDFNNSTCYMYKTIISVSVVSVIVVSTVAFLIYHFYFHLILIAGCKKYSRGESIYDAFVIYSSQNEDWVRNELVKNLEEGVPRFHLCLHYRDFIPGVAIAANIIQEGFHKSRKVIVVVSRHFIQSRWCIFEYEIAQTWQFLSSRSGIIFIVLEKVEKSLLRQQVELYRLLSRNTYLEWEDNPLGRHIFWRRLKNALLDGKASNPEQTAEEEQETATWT", "T1 sequence (Q9JHF9 19-160 partner)": "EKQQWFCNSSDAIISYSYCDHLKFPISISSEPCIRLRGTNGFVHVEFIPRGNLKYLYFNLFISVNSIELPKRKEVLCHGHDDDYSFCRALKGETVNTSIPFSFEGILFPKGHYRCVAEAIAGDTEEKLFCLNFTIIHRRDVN"}, "[9]": {"biological_target": "COX-2 (Homo sapiens, UniProt P35354)", "sequence (P35354 18-604)": "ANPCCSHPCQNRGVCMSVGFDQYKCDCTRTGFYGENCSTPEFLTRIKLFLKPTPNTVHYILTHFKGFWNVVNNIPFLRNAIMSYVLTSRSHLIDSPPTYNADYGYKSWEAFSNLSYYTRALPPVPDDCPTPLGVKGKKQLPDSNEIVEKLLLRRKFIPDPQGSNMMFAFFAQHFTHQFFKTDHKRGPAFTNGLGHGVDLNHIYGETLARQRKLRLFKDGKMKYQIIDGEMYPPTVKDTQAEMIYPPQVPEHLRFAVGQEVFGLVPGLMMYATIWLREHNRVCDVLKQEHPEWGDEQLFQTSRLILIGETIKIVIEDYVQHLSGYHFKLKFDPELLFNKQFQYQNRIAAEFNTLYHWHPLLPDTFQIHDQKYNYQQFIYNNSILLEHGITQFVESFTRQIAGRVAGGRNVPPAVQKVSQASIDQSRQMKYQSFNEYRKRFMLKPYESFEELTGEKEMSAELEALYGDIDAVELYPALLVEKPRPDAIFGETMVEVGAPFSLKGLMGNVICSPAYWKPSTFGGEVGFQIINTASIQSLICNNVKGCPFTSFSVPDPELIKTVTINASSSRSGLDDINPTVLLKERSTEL", "conditions": "concentrations of up to 10 μM; data not shown"}, "[10]": {"biological_target": "HMG-CoA reductase (Homo sapiens, UniProt P04035)", "sequence (P04035 whole entry, species assumed)": "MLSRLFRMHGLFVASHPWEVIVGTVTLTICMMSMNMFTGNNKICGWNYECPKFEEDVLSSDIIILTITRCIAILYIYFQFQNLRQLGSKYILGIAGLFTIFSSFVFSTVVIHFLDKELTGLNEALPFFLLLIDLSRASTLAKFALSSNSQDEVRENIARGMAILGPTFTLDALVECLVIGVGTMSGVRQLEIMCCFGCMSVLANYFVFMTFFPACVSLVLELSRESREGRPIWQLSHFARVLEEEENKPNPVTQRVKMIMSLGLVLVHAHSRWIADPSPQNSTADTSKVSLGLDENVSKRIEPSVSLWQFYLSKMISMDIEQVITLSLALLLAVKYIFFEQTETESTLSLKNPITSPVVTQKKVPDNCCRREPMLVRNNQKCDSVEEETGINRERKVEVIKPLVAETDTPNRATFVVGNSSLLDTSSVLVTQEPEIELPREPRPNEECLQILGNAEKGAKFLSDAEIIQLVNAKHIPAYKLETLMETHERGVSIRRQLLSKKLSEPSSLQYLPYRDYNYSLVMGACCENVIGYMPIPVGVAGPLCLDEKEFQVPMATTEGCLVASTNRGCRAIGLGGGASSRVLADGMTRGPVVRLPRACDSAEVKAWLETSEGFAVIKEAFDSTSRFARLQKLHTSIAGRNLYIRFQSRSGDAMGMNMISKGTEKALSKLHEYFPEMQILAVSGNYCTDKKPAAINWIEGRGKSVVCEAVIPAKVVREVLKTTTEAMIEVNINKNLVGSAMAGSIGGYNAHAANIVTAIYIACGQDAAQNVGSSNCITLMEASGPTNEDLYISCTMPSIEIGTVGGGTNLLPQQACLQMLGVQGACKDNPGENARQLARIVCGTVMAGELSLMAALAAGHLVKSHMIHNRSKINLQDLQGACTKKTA", "conditions": "concentrations of up to 10 μM; data not shown"}, "[11]": {"biological_target": "12-LO (12-lipoxygenase) (Homo sapiens, UniProt P18054)", "sequence (P18054 whole entry, species assumed)": "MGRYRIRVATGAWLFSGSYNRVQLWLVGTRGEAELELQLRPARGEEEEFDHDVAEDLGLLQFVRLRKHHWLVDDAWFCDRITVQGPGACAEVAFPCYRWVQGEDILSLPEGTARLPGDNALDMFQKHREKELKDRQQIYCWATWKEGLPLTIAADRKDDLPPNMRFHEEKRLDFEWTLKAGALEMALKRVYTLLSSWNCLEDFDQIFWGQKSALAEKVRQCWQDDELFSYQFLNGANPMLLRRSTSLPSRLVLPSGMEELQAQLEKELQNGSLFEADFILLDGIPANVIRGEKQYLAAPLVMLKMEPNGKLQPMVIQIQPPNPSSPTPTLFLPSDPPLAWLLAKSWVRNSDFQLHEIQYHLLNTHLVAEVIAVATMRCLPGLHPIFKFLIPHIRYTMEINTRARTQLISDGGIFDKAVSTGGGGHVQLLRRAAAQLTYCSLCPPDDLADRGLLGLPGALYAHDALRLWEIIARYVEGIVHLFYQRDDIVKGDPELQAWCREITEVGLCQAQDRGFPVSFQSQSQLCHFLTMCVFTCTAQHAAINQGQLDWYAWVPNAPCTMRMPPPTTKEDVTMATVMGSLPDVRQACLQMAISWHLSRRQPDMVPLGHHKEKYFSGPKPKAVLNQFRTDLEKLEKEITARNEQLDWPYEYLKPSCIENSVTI", "conditions": "concentrations of up to 10 μM; data not shown"}, "[12]": {"tested_on": "TNFα receptor", "conditions": "concentrations of up to 17 μM; data not shown"}, "[13]": {"tested_on": "phosphorylation of Akt, MEK1/2, ERK1/2 and p38 in human monocytes", "conditions": "stimulation with MCP-1, MIP-1α or RANTES; shown in WO 2011/083469; cited from earlier work"}, "[14]": {"tested_on": "ApoE KO mice", "test": "Atherosclerosis study in ApoE KO mice"}, "[15]": {"tested_on": "human Neutrophils", "test": "Chemotaxis assay of human neutrophils", "conditions": "5 μg/ml; towards LPS or 10% FBS/MCP-3"}, "[16]": {"tested_on": "phosphorylation of Akt, MEK1/2, ERK1/2 and p38 in human monocytes", "test": "Chemokine-induced signaling in human monocytes, Western blot"}, "[17]": {"conditions": "5 μg/ml VB-201, MCP-1 and MCP-3-stimulated cells"}}, "note": "Read-outs that look alike come from different tables or passages of the source."}
{"compound": "CCCCCCCCCCCCCCCCOC[C@H](COP(=O)([O-])OCC[N+](C)(C)C)OCCCCC(=O)O", "note": "[VB-201, (R)-1-hexadecyl-2-(4′-carboxyl)butyl-sn-glycero-3-phosphocholine]", "values": [{"measurement": "p38 phosphorylation following activation of TLR7", "setting": "[1]", "result": "no apparent effect"}, {"measurement": "activation of p38, ERK1/2 and the NFκB pathway following activation of TLR2 by serum amyloid A", "setting": "[2]; THP-1 cells", "result": "inhibited activation of p38, ERK1/2 and the NFκB pathway"}, {"measurement": "activation of p38, ERK1/2 and the NFκB pathway following activation of TLR2 by serum amyloid A", "setting": "[2]; human CD14+ cells", "result": "inhibited activation of p38, ERK1/2 and the NFκB pathway"}, {"measurement": "ROS formation in human monocytes", "setting": "[3]", "result": "no effect on ROS formation"}, {"measurement": "monocyte phagocytosis capacity", "setting": "[4]", "result": "did not have any significant effect"}, {"measurement": "granulocyte phagocytosis", "setting": "[5]", "result": "no VB-201 effect was seen"}, {"measurement": "cell migration in wound-healing scratch assay", "setting": "[6]", "result": "no effect on cell migration"}, {"measurement": "agonistic or antagonistic effect on G-coupled protein receprors (GPRC)", "setting": "[7]", "result": "no agonistic or antagonistic effect"}, {"measurement": "LPS-induced signaling", "setting": "[8]; RAW 264.7 murine macrophages", "result": "inhibited LPS-induced signaling in a dose-dependent manner"}, {"measurement": "p38 phosphorylation following activation of TLR4", "setting": "[8]; mouse BMDCs, LPS, 1.7, 8.5 or 17 μM", "result": "inhibited p^38 phosphorylation in a dose-dependent manner"}, {"measurement": "activation of p38, ERK1/2 and the NFκB pathway following activation of TLR4", "setting": "[8]; mouse peritoneal macrophages, LPS, 1.7, 8.5 or 17 μM", "result": "inhibited activation of p38, ERK1/2 and the NFκB pathway in a dose-dependent manner"}, {"measurement": "inhibition of COX-2", "setting": "[9]", "result": "No inhibition"}, {"measurement": "inhibition of HMG-CoA reductase", "setting": "[10]", "result": "No inhibition"}, {"measurement": "inhibition of 12-LO (12-lipoxygenase)", "setting": "[11]", "result": "No inhibition"}, {"measurement": "inhibition of TNFα receptor", "setting": "[12]", "result": "No inhibition"}, {"measurement": "ERK1/2 phosphorylation and MEK1/2 phosphorylation", "setting": "[13]", "result": "inhibition by VB-201 of ERK1/2 phosphorylation and MEK1/2 phosphorylation"}, {"measurement": "plaque formation relative to the PBS control", "setting": "[14]; 1.5 mg/kg, daily oral gavage, 8 weeks", "result": "significantly reduced plaque formation"}, {"measurement": "fatty streaks", "setting": "[14]; daily oral gavage, 8 weeks, 0.15 or 1.5 mg/kg", "result": "markedly reduced"}, {"measurement": "macrophage accumulation in the aortic sinus lesion (anti-CD68)", "setting": "[14]; relative to controls", "result": "reduced"}, {"measurement": "chemotaxis of human Neutrophils", "setting": "[15]", "result": "no effect on chemotaxis"}, {"measurement": "ERK1/2 phosphorylation in stimulated monocytes", "setting": "[16]; 50 ng/ml RANTES", "result": "inhibited ERK1/2 phosphorylation"}, {"measurement": "phosphorylation levels of ERK1/2", "setting": "[16]; 5 μg/ml VB-201, Fractalkine-stimulated cells", "result": "considerable reduction"}, {"measurement": "phosphorylation levels of Akt", "setting": "[16]; [17]", "result": "considerable reduction"}, {"measurement": "phosphorylation levels of ERK1/2", "setting": "[16]; [17]", "result": "considerable reduction"}, {"measurement": "phosphorylation levels of MEK1/2", "setting": "[16]; [17]", "result": "considerable reduction"}, {"measurement": "phosphorylation levels of p38", "setting": "[16]; [17]", "result": "but not in phosphorylation levels of p38"}, {"measurement": "ERK1/2 phosphorylation in monocytes pre-stimulated with MCP-1 overnight", "setting": "[16]; 8.5 μM VB-201 for 2, 5 or 15 min, 10 ng/ml MCP-1, 16 hrs", "result": "reduction of ERK1/2 phosphorylation in starting at 5 min"}]}
